Experimental findings from patent US10407395B2, “Benzimidazole compound and medical use thereof” (Sumitomo Dainippon Pharma Co., Ltd., priority 2015, dated 2019) are described below.

One assay addresses human SCN9A (Nav 1.7) (Homo sapiens, UniProt Q15858). The assay is described as follows: Measurement of Na ion current (Nav 1.7) by automated patch clamp assay in cells stably-expressing human SCN9A. The format is cell-based. The conditions noted are these: compound concentration 10 μmol/L; holding potential inactivating 50% Nav 1.7 channel (around −60 mV); read-out: Inhibitory rate (%) of Na ion current. In a few lines:
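Tetracycline-inducible cells stably expressing human SCN9A were recorded by automated patch clamp at room temperature. Inhibition rate derived from peak Na current evoked by depolarizing pulse, compared with and without test compound.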
For orientation: The patch-clamp technique gives a direct electrical read-out from membranes.

For assay [1], the system named is rats streptozotocin (STZ)-induced diabetic peripheral neuropathy model. Nature of the assay: Evaluation of analgesic effect (von Frey test) in streptozotocin-induced diabetic peripheral neuropathy model. The format is in vivo, rat. The settings on record: male Wistar rats, 3 mg/kg of body weight, orally, one hour before measuring. As for the experimental part:
Test (2) Evaluation of Analgesic Effect in Streptozotocin-Induced Diabetic Peripheral Neuropathy Models
Using some typical compounds among the compounds of the present invention, the inhibitory effect for neuropathic pain was determined through the evaluation of analgesic effect in rats streptozotocin (STZ)-induced diabetic peripheral neuropathy model.
The disease animal model was prepared by means of a partially-modified method of Fox et al. (Pain 81, 307-316, 1999). STZ was intraperitoneally administered to 9-week old male Wistar rats in 45 mg/kg of body weight to prepare animal model suffering from diabetic peripheral neuropathy. The analgesic effect was evaluated by von Frey test. Specifically, mechanical sensitivity was measured by applying hairs (von Frey hair) to the plantar surface of the animal's hind paw, and then the reaction thresholds (50% paw withdrawal thresholds) for the mechanical stimulation was determined by using a formula based on Chaplan et al. (Journal of Neuroscience Methods 53, 55-63, 1994).
One and two days before evaluating the test compounds, the reaction thresholds were measured to obtain an average thereof, and the average value was used as a reference value obtained before the test compounds would be administered.
In order to reduce the variations of the averaged values among the test groups and the measured values in each group, the animals were divided into 4 to 5 groups.
In the evaluation test of the test compounds, the reaction thresholds were measured after administering each test compound. One hour before measuring the reaction thresholds, each test compound was administered in 3 mg/kg of body weight. The strength of analgesic effect of each test compound is expressed as the extension width (g) of reaction thresholds which is obtained by the calculation formula of (reaction threshold obtained after administering test compound)−(reaction threshold obtained before administering test compound).

Sequence of human SCN9A (Nav 1.7) (Q15858 whole entry): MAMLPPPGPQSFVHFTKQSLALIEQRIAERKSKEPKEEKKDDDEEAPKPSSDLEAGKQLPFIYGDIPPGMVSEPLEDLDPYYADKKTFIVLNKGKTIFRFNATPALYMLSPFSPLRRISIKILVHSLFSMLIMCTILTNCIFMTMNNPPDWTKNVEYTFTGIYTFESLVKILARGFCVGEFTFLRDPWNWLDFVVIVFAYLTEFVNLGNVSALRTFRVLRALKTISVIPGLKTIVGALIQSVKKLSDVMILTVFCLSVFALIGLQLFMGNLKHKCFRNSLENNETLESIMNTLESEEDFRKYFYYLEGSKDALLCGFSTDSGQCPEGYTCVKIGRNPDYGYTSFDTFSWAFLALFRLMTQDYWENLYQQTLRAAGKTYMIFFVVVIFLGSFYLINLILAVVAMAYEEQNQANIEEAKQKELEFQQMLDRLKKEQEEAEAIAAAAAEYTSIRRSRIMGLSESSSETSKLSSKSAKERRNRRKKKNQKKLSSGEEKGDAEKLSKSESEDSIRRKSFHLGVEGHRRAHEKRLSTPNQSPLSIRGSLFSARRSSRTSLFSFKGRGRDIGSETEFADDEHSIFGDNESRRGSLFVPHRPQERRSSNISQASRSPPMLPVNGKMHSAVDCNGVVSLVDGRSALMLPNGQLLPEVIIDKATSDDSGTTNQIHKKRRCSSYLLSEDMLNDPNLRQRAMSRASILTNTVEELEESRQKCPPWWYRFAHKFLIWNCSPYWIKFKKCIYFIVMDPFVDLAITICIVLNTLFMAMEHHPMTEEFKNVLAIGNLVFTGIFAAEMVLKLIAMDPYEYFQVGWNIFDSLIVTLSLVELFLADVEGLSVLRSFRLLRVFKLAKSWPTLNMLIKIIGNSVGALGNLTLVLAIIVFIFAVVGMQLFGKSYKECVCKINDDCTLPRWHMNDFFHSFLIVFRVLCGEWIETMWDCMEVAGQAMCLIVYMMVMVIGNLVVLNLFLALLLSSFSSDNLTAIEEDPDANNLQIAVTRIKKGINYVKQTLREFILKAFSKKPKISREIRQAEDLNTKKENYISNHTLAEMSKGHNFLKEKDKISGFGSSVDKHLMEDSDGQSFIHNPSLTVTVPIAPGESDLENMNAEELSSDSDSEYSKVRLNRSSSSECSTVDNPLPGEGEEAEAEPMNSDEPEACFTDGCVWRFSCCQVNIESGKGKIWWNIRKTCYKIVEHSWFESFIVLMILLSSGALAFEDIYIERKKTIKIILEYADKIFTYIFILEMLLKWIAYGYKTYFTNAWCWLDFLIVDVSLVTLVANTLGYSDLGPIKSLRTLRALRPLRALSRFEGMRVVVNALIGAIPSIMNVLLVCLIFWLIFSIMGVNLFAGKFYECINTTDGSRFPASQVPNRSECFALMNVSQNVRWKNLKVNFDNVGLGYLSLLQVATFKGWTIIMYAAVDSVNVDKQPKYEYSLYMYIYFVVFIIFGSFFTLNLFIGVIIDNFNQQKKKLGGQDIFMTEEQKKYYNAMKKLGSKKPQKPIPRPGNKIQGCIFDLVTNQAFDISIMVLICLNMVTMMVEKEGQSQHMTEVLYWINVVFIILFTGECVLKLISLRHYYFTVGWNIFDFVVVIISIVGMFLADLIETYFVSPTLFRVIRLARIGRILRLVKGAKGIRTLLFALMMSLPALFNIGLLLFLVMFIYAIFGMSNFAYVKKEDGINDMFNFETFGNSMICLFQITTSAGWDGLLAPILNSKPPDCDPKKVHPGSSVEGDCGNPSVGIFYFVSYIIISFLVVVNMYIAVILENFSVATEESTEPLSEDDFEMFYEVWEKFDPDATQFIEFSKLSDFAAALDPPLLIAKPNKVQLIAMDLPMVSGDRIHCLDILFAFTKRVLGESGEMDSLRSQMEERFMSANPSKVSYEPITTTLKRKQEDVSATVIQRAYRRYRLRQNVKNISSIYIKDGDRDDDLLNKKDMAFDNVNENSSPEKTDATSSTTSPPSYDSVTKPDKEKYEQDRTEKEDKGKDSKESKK

On to `CC(C)(O)CCn1cnc2ccc(Oc3ccc(C(F)(F)F)cn3)cc21` [Example 59, 2-methyl-4-(6-{[5-(trifluoromethyl)pyridin-2-yl]oxy}-1H-benzimidazol-1-yl)butan-2-ol], for which, at human SCN9A (Nav 1.7), the inhibition at 10 µM stood at 49%. The “extension width (g) of reaction thresholds (50% paw withdrawal threshold after minus before administering test compound)” value in assay [1] came out at 5.1 g.

As to `OC1(Cn2cnc3ccc(Oc4ccc(OC(F)(F)F)cc4)cc32)COC1` [Example 94, 3-({6-[4-(trifluoromethoxy)phenoxy]-1H-benzimidazol-1-yl}methyl)oxetan-3-ol], the inhibition at 10 µM at human SCN9A (Nav 1.7) is 73%. The “extension width (g) of reaction thresholds (50% paw withdrawal threshold after minus before administering test compound)” value in assay [1] amounted to 4.9 g.

On to `CC(C)(O)CCn1cnc2ccc(Oc3ccc(Cl)cc3)cc21` [Example 101, 4-[6-(4-chlorophenoxy)-1H-benzimidazol-1-yl]-2-methylbutan-2-ol], for which the inhibition at 10 µM on human SCN9A (Nav 1.7) was 43%. Besides, in assay [1], the “extension width (g) of reaction thresholds (50% paw withdrawal threshold after minus before administering test compound)” value is recorded as 1.4 g.

In the case of `O[C@H]1CC[C@@H](n2cnc3ccc(Oc4ccc(C(F)(F)F)cn4)cc32)CC1` [Example 118, cis-4-(6-{[5-(trifluoromethyl)pyridin-2-yl]oxy}-1H-benzimidazol-1-yl)cyclohexanol], at human SCN9A (Nav 1.7), the inhibition at 10 µM is 33%. Further, in assay [1], the “extension width (g) of reaction thresholds (50% paw withdrawal threshold after minus before administering test compound)” value is on record as 3.4 g.

Turning to `CC(C)(O)Cn1cnc2ccc(-c3ccc(C(F)(F)F)cc3F)cc21` [Example 123, 1-{6-[2-fluoro-4-(trifluoromethyl)phenyl]-1H-benzimidazol-1-yl}-2-methylpropan-2-ol], the inhibition at 10 µM on human SCN9A (Nav 1.7) was determined as 64%. Also, in assay [1], the “extension width (g) of reaction thresholds (50% paw withdrawal threshold after minus before administering test compound)” value is on record as 1.3 g.

Regarding `COc1cc(C(F)(F)F)ccc1-c1ccc2ncn(CC3(O)COC3)c2c1` [Example 148, 3-({6-[2-methoxy-4-(trifluoromethyl)phenyl]-1H-benzimidazol-1-yl}methyl)oxetan-3-ol], the inhibition at 10 µM on human SCN9A (Nav 1.7) amounted to 59%. Besides, the “extension width (g) of reaction thresholds (50% paw withdrawal threshold after minus before administering test compound)” value in assay [1] is 3.7 g.

Regarding `CC(C)(O)Cn1cnc2cc(-c3ccc(OC(F)(F)F)cc3)ccc21` [Example 179, 2-methyl-1-{5-[4-(trifluoromethoxy)phenyl]-1H-benzimidazol-1-yl}propan-2-ol], the inhibition at 10 µM on human SCN9A (Nav 1.7) amounted to 61%. The “extension width (g) of reaction thresholds (50% paw withdrawal threshold after minus before administering test compound)” value in assay [1] is 6.5 g.

Take `CC(C)(O)Cn1cnc2cc(-c3ccc(C(F)(F)F)cc3F)ccc21` [Example 181, 1-{5-[2-fluoro-4-(trifluoromethyl)phenyl]-1H-benzimidazol-1-yl}-2-methylpropan-2-ol]: the inhibition at 10 µM at human SCN9A (Nav 1.7) worked out at 45%. Further, the “extension width (g) of reaction thresholds (50% paw withdrawal threshold after minus before administering test compound)” value in assay [1] is 2.5 g.

On to `COc1cc(C(F)(F)F)ccc1-c1ccc2c(c1)ncn2CC1(O)COC1` [Example 205, 3-({5-[2-methoxy-4-(trifluoromethyl)phenyl]-1H-benzimidazol-1-yl}methyl)oxetan-3-ol], for which the inhibition at 10 µM on human SCN9A (Nav 1.7) amounted to 46%. Also, in assay [1], the “extension width (g) of reaction thresholds (50% paw withdrawal threshold after minus before administering test compound)” value amounted to 1.6 g.

In the case of `C[C@H](n1cnc2ccc(Oc3ccc(C(F)(F)F)cn3)cc21)C(C)(C)O` [Example 229, (3S)-2-methyl-3-(6-{[5-(trifluoromethyl)pyridin-2-yl]oxy}-1H-benzimidazol-1-yl)butan-2-ol], the inhibition at 10 µM on human SCN9A (Nav 1.7) is 32%. Further, the “extension width (g) of reaction thresholds (50% paw withdrawal threshold after minus before administering test compound)” value in assay [1] is reported as 3.9 g.
